Results as given in paper PMC8343220, “The selectivity of α‐adrenoceptor agonists for the human α1A, α1B, and α1D‐adrenoceptors” (Pharmacology Research & Perspectives, 2021).
Where two headings read alike, the source gives them in different places.

Columns and labels:
[1] = target: T1, human α1D‐adrenoceptor (full length) (Homo sapiens, UniProt P25100); assay: Intracellular free calcium mobilization, CHO‐α1D cells; assay type: cell-based
T1 construct: human α1D‐adrenoceptor (full length) were used; expressed in transfected cells; host or cells: CHO-K1
T1 sequence (P25100 1-572): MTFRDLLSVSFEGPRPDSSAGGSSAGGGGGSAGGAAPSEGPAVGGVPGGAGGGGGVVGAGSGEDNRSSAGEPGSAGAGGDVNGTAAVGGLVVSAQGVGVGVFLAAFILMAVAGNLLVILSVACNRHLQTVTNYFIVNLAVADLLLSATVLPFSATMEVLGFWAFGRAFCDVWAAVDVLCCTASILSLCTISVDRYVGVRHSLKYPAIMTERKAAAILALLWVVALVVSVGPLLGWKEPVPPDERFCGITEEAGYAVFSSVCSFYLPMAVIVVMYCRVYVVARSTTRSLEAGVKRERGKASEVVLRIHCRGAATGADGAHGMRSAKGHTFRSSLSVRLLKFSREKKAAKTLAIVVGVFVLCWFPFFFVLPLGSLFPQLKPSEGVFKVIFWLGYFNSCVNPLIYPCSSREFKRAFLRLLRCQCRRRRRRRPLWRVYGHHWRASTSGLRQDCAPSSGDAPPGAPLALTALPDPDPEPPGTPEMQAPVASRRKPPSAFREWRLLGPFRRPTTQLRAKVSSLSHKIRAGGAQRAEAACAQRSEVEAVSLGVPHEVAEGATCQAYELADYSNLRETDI

human α1A‐adrenoceptor [2] = target: T2, human α1A‐adrenoceptor (Homo sapiens, UniProt P35348); assay: ^3H‐prazosin whole‐cell radioligand binding, CHO‐α1A cells
T2 construct: expressed in transfected cells; host or cells: CHO-K1
T2 sequence (P35348 1-466): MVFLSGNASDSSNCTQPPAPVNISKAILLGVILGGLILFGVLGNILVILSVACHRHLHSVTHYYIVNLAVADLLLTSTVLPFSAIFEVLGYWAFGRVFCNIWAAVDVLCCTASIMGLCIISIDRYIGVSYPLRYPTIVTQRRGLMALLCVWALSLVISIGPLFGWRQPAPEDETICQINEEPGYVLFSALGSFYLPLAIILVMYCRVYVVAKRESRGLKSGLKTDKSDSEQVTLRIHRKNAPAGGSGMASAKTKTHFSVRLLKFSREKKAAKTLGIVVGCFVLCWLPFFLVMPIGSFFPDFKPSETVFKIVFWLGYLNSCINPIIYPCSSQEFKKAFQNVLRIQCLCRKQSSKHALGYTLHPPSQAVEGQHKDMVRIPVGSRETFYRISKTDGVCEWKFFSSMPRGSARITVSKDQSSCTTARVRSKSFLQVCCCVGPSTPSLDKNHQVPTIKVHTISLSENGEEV

human α1A‐adrenoceptor [3] = target: T2, human α1A‐adrenoceptor; assay: ERK1/2‐phosphorylation (Surefire Alphascreen), CHO‐α1A cells; assay type: cell-based
[4] = target: T1, human α1D‐adrenoceptor (full length); conditions: CHO‐α1D cells; ligands marked ^a; ref Proudman et al., 2020; cited from earlier work
[5] = system: parental CHO cell line without any transfected receptors; assay: ^3H‐cAMP accumulation, parent CHO cells without transfected receptors; assay type: cell-based, Chinese hamster
human α1A‐adrenoceptor [6] = target: T2, human α1A‐adrenoceptor; conditions: CHO‐α1A cells; given as log KD (negative); ligands marked ^a; ref Proudman et al., 2020; cited from earlier work
[7] = system: parental CHO cell line without any transfected receptors; assay: Forskolin‐stimulated cAMP accumulation, parent CHO cells without transfected receptors; assay type: cell-based, Chinese hamster
human α1B‐adrenoceptor [8] = target: T3, human α1B‐adrenoceptor (Homo sapiens, UniProt P35368); assay: ERK1/2‐phosphorylation (Surefire Alphascreen), CHO‐α1B cells; assay type: cell-based
T3 construct: expressed in transfected cells; host or cells: CHO-K1
T3 sequence (P35368 1-520): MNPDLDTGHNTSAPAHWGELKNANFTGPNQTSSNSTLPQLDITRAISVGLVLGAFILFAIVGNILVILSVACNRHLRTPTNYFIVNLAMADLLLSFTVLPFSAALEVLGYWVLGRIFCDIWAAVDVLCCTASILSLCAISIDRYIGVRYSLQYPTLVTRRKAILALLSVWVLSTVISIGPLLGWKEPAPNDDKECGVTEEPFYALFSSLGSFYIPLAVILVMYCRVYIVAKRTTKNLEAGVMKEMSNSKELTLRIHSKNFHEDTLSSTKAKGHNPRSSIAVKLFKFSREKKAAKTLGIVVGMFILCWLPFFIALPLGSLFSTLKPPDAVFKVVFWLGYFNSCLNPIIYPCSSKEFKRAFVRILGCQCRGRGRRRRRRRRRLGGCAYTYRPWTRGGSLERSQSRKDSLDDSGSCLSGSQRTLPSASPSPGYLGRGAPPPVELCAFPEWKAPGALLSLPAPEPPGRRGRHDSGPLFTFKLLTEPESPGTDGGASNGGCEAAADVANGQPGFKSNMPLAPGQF

human α1A‐adrenoceptor [9] = target: T2, human α1A‐adrenoceptor; assay: Intracellular free calcium mobilization, CHO‐α1A cells; assay type: cell-based
human α1A‐adrenoceptor [10] = target: T2, human α1A‐adrenoceptor; assay: ^3H‐cAMP accumulation in the presence of 10 μM forskolin, CHO‐α1A cells; assay type: cell-based; conditions: CHO‐α1A cells; for cAMP accumulation (in presence of forskolin) Log EC50: 10 μM forskolin; for cAMP accumulation (in presence of forskolin) Fold increase: fold increase of the forskolin response
[11] = system: parental CHO cell line without any transfected receptors; assay: Intracellular calcium mobilization, parent CHO cells without transfected receptors; assay type: cell-based, Chinese hamster
human α1A‐adrenoceptor [12] = target: T2, human α1A‐adrenoceptor; assay: ^3H‐cAMP accumulation, CHO‐α1A cells; assay type: cell-based; conditions: CHO‐α1A cells; for cAMP accumulation Log EC50: 5 h; for cAMP accumulation % forskolin: % of 10 µM forskolin response
human α1B‐adrenoceptor [13] = target: T3, human α1B‐adrenoceptor; conditions: CHO‐α1B cells; given as log KD (negative); ligands marked ^a; ref Proudman et al., 2020; cited from earlier work
[14] = system: parental CHO cell line without any transfected receptors; assay: ERK1/2‐phosphorylation, parent CHO cells without transfected receptors; assay type: cell-based, Chinese hamster
[15] = target: T1, human α1D‐adrenoceptor (full length); assay: ^3H‐prazosin whole‐cell radioligand binding, CHO‐α1D cells
[16] = target: T1, human α1D‐adrenoceptor (full length); assay: ERK1/2‐phosphorylation (Surefire Alphascreen), CHO‐α1D cells; assay type: cell-based
human α1B‐adrenoceptor [17] = target: T3, human α1B‐adrenoceptor; assay: Intracellular free calcium mobilization, CHO‐α1B cells; assay type: cell-based
[18] = CHO‐α1D cells, response at 100 µM ligand (no EC50 given)

SMILES	Intracellular calcium release % Ionomycin at 100 µM [1] [%]	Affinity selectivity ratio α1A vs α1B (human α1A‐adrenoceptor [2]) [fold]	Affinity selectivity ratio α1A vs α1D (human α1A‐adrenoceptor [2]) [fold]	ERK1/2‐phosphorylation % PDBu (human α1A‐adrenoceptor [3]) [%]	ERK1/2‐phosphorylation Log EC50 (human α1A‐adrenoceptor [3])	Log KD α1D, ^3H‐prazosin whole cell binding (single site or first, higher affinity component) [4]	Log KD α1A, ^3H‐prazosin whole cell binding (human α1A‐adrenoceptor [6])	Intracellular calcium release % ionomycin (human α1A‐adrenoceptor [9]) [%]	Intracellular calcium release Log EC50 (human α1A‐adrenoceptor [9])	Log efficacy ratio KD /EC50 (human α1A‐adrenoceptor [9])	cAMP accumulation (in presence of forskolin) Log EC50 (human α1A‐adrenoceptor [10])	cAMP accumulation (in presence of forskolin) Fold increase (human α1A‐adrenoceptor [10]) [fold]	Intracellular calcium release % ionomycin [11]	cAMP accumulation Log EC50 (human α1A‐adrenoceptor [12])	cAMP accumulation % forskolin (human α1A‐adrenoceptor [12]) [%]	Log KD α1B, ^3H‐prazosin whole cell binding (human α1B‐adrenoceptor [13])	3H‐prazosin binding Log KD [15]	Affinity selectivity ratio α1B vs α1D [15] [fold]	ERK1/2‐phosphorylation % PDBu at 100 µM [16] [%]	other results
CCC1(C2=NCCN2)Cc2ccccc2O1 (stereo not drawn) [Eforaxan]	2.8 ± 0.8	15.8	3.2	76.4 ± 5.2	−6.12 ± 0.07	−4.97 ± 0.06	−5.47 ± 0.03	45.0 ± 2.6	−6.83 ± 0.10	1.36	−5.93 ± 0.13	1.47 ± 0.13	No response	−5.47 ± 0.10	4.0 ± 0.6	−4.27 ± 0.07	−4.97	5.0	2.7 ± 1.5	cAMP accumulation % forskolin [5]: No response; cAMP accumulation (in presence of forskolin) % forskolin-stim cAMP [7]: No response; cAMP accumulation (in presence of forskolin) Log EC50 [7]: No response; ERK1/2‐phosphorylation % PDBu at 100 µM (human α1B‐adrenoceptor [8]): 11.9 ± 2.4%; ERK1/2-phosphorylation % PDBu [14]: No response; ERK1/2-phosphorylation Log EC50 [14]: No response; Intracellular calcium release % ionomycin (human α1B‐adrenoceptor [17]): No response; Intracellular calcium release Log EC50 (human α1B‐adrenoceptor [17]): No response
O=C1CCC(=O)N1C[C@H]1CC[C@H]2CN(c3ncccn3)CCN2C1 [Sunepitrion]	2.5 ± 0.5	13.5	2.8	39.7 ± 8.4	−5.96 ± 0.12	−5.33 ± 0.23	−5.78 ± 0.06	30.1 ± 3.0	−6.17 ± 0.14	0.39			No response			−4.65 ± 0.06	−5.33	4.8	2.4 ± 1.1	ERK1/2‐phosphorylation % PDBu (human α1B‐adrenoceptor [8]): 7.8 ± 2.8%; ERK1/2-phosphorylation % PDBu at 100μM [14]: 4.1 ± 2.7%; Intracellular calcium release % Ionomycin at 100 µM (human α1B‐adrenoceptor [17]): 8.2 ± 1.3%
CC1c2ccccc2CN1CC1=NCCN1 (stereo not drawn) [BRL44408]						−5.06 ± 0.05	−5.92 ± 0.09				−6.43 ± 0.09	1.62 ± 0.08		−6.27 ± 0.17	4.7 ± 0.5	−4.68 ± 0.07				Intracellular calcium release % Ionomycin at 100 µM [1, 18]: 4.5 ± 2.1%; Affinity selectivity ratio α1A vs α1B (human α1A‐adrenoceptor [2]; higher affinity for α1A than α1B): 17.4 fold; ERK1/2‐phosphorylation Log EC50 (human α1A‐adrenoceptor [3]; CHO‐α1A cells, 2–4 min, ^a bi‐phasic: initial stimulatory part, ^b also active in parent CHO cells): −7.03 ± 0.14; ERK1/2‐phosphorylation % PDBu (human α1A‐adrenoceptor [3]; CHO‐α1A cells, % of 10 µM PDBu, ^a bi‐phasic: initial stimulatory part): 77.4 ± 4.1%; cAMP accumulation (in presence of forskolin) % forskolin-stim cAMP at 100μM ([7]; CHO cells without transfected receptors, response at 100μM only, EC50 not obtainable, % of forskolin-stimulated cAMP): 77.6 ± 2.3%; ERK1/2‐phosphorylation % PDBu at 100 µM (human α1B‐adrenoceptor [8]; CHO‐α1B cells, response at 100 µM ligand (no EC50 given)): 47.0 ± 7.0%; Log efficacy ratio KD /EC50 (human α1A‐adrenoceptor [9]; CHO‐α1A cells, binding KD and calcium EC50): 1.32; Intracellular calcium release Log EC50 (human α1A‐adrenoceptor [9]; CHO‐α1A cells, given as log EC50 (negative)): −7.24 ± 0.10; Intracellular calcium release % ionomycin (human α1A‐adrenoceptor [9]; CHO‐α1A cells, maximal response as % of 10 µM ionomycin): 36.5 ± 5.4%; ERK1/2-phosphorylation % PDBu at 100μM ([14]; CHO cells without transfected receptors, response at 100μM only, EC50 not obtainable, % of PDBu (10μM)): 17.6 ± 8.1%; 3H‐prazosin binding Log KD ([15]; CHO‐α1D cells, whole‐cell binding (from Table 1), log values given negative): −5.06; Affinity selectivity ratio α1B vs α1D ([15]; higher affinity for α1D than α1B): 2.4 fold; ERK1/2‐phosphorylation % PDBu at 100 µM [16, 18]: 47.4 ± 5.7%; Intracellular calcium release % Ionomycin at 100 µM (human α1B‐adrenoceptor [17]; CHO‐α1B cells, response at 100 µM ligand (no EC50 given), % of ionomycin response): 13.7 ± 6.5%
